Assay results published in PubChem BioAssay (NCI).
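In this assay, cells in 96-well plates receive the compound at five concentrations for 48 hours. Endpoints are linearly interpolated between the surrounding concentrations. TGI denotes the concentration required for complete inhibition of growth.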

What was measured:
Assay in all cases: NCI anticancer screen, dose series, 48 h
HCT-15 colon = system: HCT-15 colon
MDA-N = system: MDA-N
HT29 colon = system: HT29 colon
HCT-116 colon = system: HCT-116 colon
OVCAR-5 ovarian = system: OVCAR-5 ovarian
IGROV1 ovarian = system: IGROV1 ovarian
SK-OV-3 ovarian = system: SK-OV-3 ovarian
A549 NSCLC = system: A549 NSCLC
SF-268 CNS = system: SF-268 CNS
M14 melanoma = system: M14 melanoma

Row | Compound | TGI (HCT-15 colon) | TGI (MDA-N) | TGI (HT29 colon) | TGI (HCT-116 colon) | TGI (OVCAR-5 ovarian) | TGI (IGROV1 ovarian) | TGI (SK-OV-3 ovarian) | TGI (A549 NSCLC) | TGI (SF-268 CNS) | TGI (M14 melanoma)
1 | O=P(O)(O)c1ccc(-c2ccc(I)cc2)cc1 | > 100 µM | > 100 µM | > 100 µM | > 100 µM | > 100 µM | > 100 µM | > 100 µM | > 100 µM | > 100 µM | > 100 µM
2 | Cc1cc2c(c(C(=O)NCC(=O)N[C@@H](C)C(=O)OCc3ccccc3)c1)Oc1c(cc(C)cc1C(=O)NCC(=O)N[C@@H](C)C(=O)OCc1ccccc1)S2 | > 100 µM | > 100 µM | > 100 µM | > 100 µM | > 100 µM | > 100 µM | > 100 µM | > 100 µM | > 100 µM | > 100 µM
3 | CCOC(=O)/C=C(/C(=O)OCC)n1cc(C)c(=O)n(Cc2cnnn2COCCOC(C)=O)c1=O | > 49.1 µM | 48.5 µM | 27.6 µM | 28.4 µM | 36.9 µM | 32.7 µM | > 100 µM | > 84.2 µM | 42.5 µM | 31.8 µM
4 | Cc1cc2nc3c(C#N)c4c(c(Nc5ccc(F)cc5)n3c2cc1C)CCC4 | > 100 µM | > 100 µM | > 100 µM | > 100 µM | > 100 µM | > 100 µM | > 100 µM | > 100 µM | > 100 µM | > 100 µM
5 | Nn1c(Nc2ccc(S(N)(=O)=O)cc2)nnc(/C=C/c2c(O)ccc3ccccc23)c1=O | 30.4 µM | 42 µM | 42.6 µM | 34.1 µM | 56.1 µM | 0.942 µM | 88.5 µM | 92.4 µM | > 100 µM | 69.8 µM
6 | Cc1ccc(S(=O)(=O)N2CCC[C@@H]2C(=O)O[C@@H]2CCC3CC=CC32)cc1 (stereo not given in full) | > 100 µM | 78.6 µM | > 100 µM | > 100 µM | > 100 µM | > 100 µM | 48.3 µM | > 100 µM | 75 µM | > 100 µM
7 | N[C@H]1c2c(Br)sc(Br)c2C(=O)[C@H]1O | 24.3 µM | 30.1 µM | 30.8 µM | 34.9 µM | 60.7 µM | 32.8 µM | 38.3 µM | 70.1 µM | > 68.1 µM | 48.4 µM
8 | COC(=O)CNC(=O)C(Cc1ccccc1)NC(=O)c1ccc(-c2ccc(Cl)cc2Cl)o1 (stereo not given) | 89.4 µM | 86.8 µM | 52.7 µM | 43.2 µM | > 100 µM | > 100 µM | 84.2 µM | > 100 µM | 69.8 µM | > 100 µM
9 | N#Cc1c(N)oc(-c2ccc([N+](=O)[O-])cc2)c1C#N | 53.1 µM | > 100 µM | > 100 µM | > 100 µM | > 100 µM | 42.4 µM | > 100 µM | > 100 µM | 58.9 µM | > 100 µM
10 | CC(C)=CC1C(C(=O)Oc2ccccc2C(C)C)C1(C)C (stereo not given) | 53.1 µM | 90 µM | 36.9 µM | 50.9 µM | 48.8 µM | > 100 µM | > 100 µM | > 100 µM | > 100 µM | > 100 µM
11 | Clc1cc(-c2ccccc2)nc(Nc2nc3ccccc3[nH]2)n1 | 22 µM | 38.7 µM | 45.6 µM | > 100 µM | > 100 µM | 33.2 µM | > 100 µM | > 100 µM | 80.9 µM | 63 µM
12 | Cc1ncc([N+](=O)[O-])n1CC[N+](C)([O-])CCCCn1ccnc1[N+](=O)[O-] (stereo not given) | > 100 µM | > 100 µM | > 100 µM | > 100 µM | > 100 µM | > 100 µM | > 100 µM | > 100 µM | > 100 µM | > 100 µM
13 | Oc1c(CN2CCCC2)ccc2cccnc12 | > 41.2 µM | > 100 µM | > 69 µM | > 100 µM | > 100 µM | > 84.5 µM | > 96.2 µM | > 100 µM | > 100 µM | 80.7 µM
14 | O=C(CCBr)N1CCN(C(=O)CCBr)CC1 | 222 µM | 225 µM | 280 µM | 151 µM | 189 µM | 245 µM | 212 µM | 140 µM | 153 µM | 131 µM
15 | CSc1cc(Cl)c(C)cc1S(=O)(=O)NC(=O)NNc1ccc(F)cc1 | > 100 µM | > 100 µM | > 100 µM | > 100 µM | > 100 µM | > 100 µM | > 100 µM | > 100 µM | > 100 µM | > 100 µM
16 | CC(C)(C)NC1=NC(C(F)(F)F)(C(F)(F)F)NC(=O)N1 | > 100 µM | > 100 µM | > 100 µM | > 100 µM | > 100 µM | > 100 µM | > 100 µM | > 100 µM | > 100 µM | > 100 µM
17 | COc1ccc(-n2c(SC(CN3CCOCC3)CN3CCCC3=O)nc3ccccc3c2=O)cc1 (stereo not given) | > 100 µM | > 100 µM | > 100 µM | > 100 µM | > 100 µM | > 100 µM | > 100 µM | > 100 µM | > 100 µM | > 100 µM
